Consider 1 compound from US9050326B2, “Amido derivatives-contained pharmaceutical composition” (priority 2008, dated 2015).

Series [1] is described as follows: Chemical stability against heat in manufacturing a solid dispersion with a twin screw extruder (melting method). The series is classed as physicochemical. The source says:
Salts, a clathrate, a solid dispersion, and the like are known as methods of improving the solubility of a slightly water-soluble drug. However, with respect to compound A per se, it is expected that a salt of compound A is desalted, even if the solubility is improved, and that the inclusion ability of cyclodextrin, which is commonly used as a host of clathrates, is low.

The nature of series [2]: Solubility, dissolution test of the 15th Edition of the Japanese Pharmacopoeia. The settings on record: thermodynamic from solid, without storage, read-out: Solubility of compound A. The format is physicochemical.

Values after ≈ are worked out from the molar mass of the structure shown.

With `Cc1cccc(C)c1N(CC(=O)Nc1ccc(-c2ncon2)cc1)C(=O)C1CCS(=O)(=O)CC1` [Compound A, N-(2,6-Dimethylphenyl)-N-(2-{[4-(1,2,4-oxadiazol-3-yl)phenyl]amino}-2-oxoethyl)tetrahydro-2H-thiopyran-4-carboxamide 1,1-dioxide], in series [1], the “Chemical stability against heat” value is “low chemical stability against heat”. Besides, the solubility in series [2] was 2 µg/mL (≈ 4.14 µM).

The term solubility denotes the dissolved amount per volume that the medium holds.
